These results are taken from US10563197B2, “Use of a combination of Dbait molecule and PARP inhibitors to treat cancer” (INSTITUT CURIE, priority 2015, dated 2020).

Holding throughout (assay type): cell-based, human
One assay relates to MDAMB231. As to the kind of experiment: Cell survival, trypan blue counting. As to conditions: for efficacy of the combination of PARPi with AsiDNA versus calculated additivity: 4.8 μM or 16 μM AsiDNA, PARPi doses giving 80% and 50% survival, 6 days; for IC20 / IC50: Homo sapiens, MDA-MB-231, MDAMB231; for IC20: PARPi dose giving 80% survival; for IC50: PARPi dose resulting in 50% survival. How it is done:
Cells were grown according to the supplier's instructions.

Another assay has as its system 3 BC cell lines. As to the kind of experiment: Combined treatment survival in BC cell lines (FIG. 6, 7, 12). As to conditions: AsiDNA 4.8 μM with veliparib 10 and 50 μM; 6 days. How it is done:
(§1) Efficacy of AsiDNA (4. 8 μM), olaparib (0, 0.1 and 1 μM) or both was monitored 6 days after treatment by cell counting after trypan blue labeling. (A) Percentage of living cells relative to non-treated condition (NT). (B) Percentage of dead cells. Data are expressed as mean+Sc.D. of at least 2 independent experiments. Dotted lines indicate the calculated cell survivals if additivity between AsiDNA and olaparib.
Efficacy of AsiDNA (4.8 μM), veliparib (0, 10 and 50 μM) or both was monitored 6 days after treatment by trypan blue staining. (A) Percentage of living cells relative to non-treated condition (NT). (B) Percentage of dead cells. Dotted lines indicate the calculated cell survivals if additivity between AsiDNA and veliparib.
The inventors monitored cell survival to combined treatment of 3 BC and 2 non-tumor cell lines with different sensitivities to Ola and AsiDNA alone (FIG. 6; Table 1). […] However, the combination remained more efficient or at least equal to the expected additive effect at all the tested doses. […] In contrast, the normal cells were insensitive to both, the combined and the single treatments with AsiDNA and Ola (FIG. 6; Table 1).

Assay [1] concerns Breast cancer cell lines MDAMB231. Kind of assay: Cell survival with DT01 and PARP inhibitors (Example 1, FIG. 1). As to conditions: DT01 100 or 333 μg/ml plus Olaparib 0.1, 1 μM or Veliparib 1, 10, 50 μM; 6 days. As to the method: Breast cancer cell lines MDAMB231 were treated with 100 μg/ml (Black, Squares) or 333 μg/ml (Grey, Crosses) of DT01 or no DT01 (Black, Diamond) and exposed to either 0, 0.1 and 1 μM of Olaparib (upper panel) or 1, 10 and 50 μM Veliparib (lower panel). Survival was measured 6 days after treatment using trypan blue to detect living cells. The data are presented as % of the non-treated control.
The human cell lines were grown in complete RPMI (Gibco, Cergy Pontoise, France) supplemented with 10% fetal bovine serum (ATGC, Orléans, France), 1% sodium pyruvate, streptomycin ([…]) and penicillin ([…]) (Invitrogen, Carlsbad, Calif., USA). Cells were maintained at 37° C. under a 5% CO2 atmosphere, at 100% humidity. Treatments were performed by adding nucleotides (DT01 and others) or/and PARP inhibitors at time zero in medium without serum. The medium was changed with fresh medium containing fetal bovine serum 24 hours after beginning of treatment. Cells were let to grow for 4 additional days (5 days after treatment), treated with trypsin and counted for total number of cells. Trypan blue (0.4%) was added for counting the living cells (uncolored) in the population.

The test system of a further assay is 2 non-tumor cell lines. Kind of assay: Combined treatment survival in non-tumor cell lines (FIG. 6, 12). As to conditions: AsiDNA 4.8 μM with veliparib 10 and 50 μM; 6 days. As to the method:
as §1
(A) Percentage of living cells relative to non-treated condition (NT). (B) Percentage of dead cells. Dotted lines indicate the calculated cell survivals if additivity between AsiDNA and veliparib.
The inventors monitored cell survival to combined treatment of 3 BC and 2 non-tumor cell lines with different sensitivities to Ola and AsiDNA alone (FIG. 6; Table 1).

The IC20 is the concentration at which the effect reaches the 20% level. Broadly, the IC50 is the concentration needed to halve the response being measured. For the compound `COC1CCN(C(=O)c2cc(Cc3n[nH]c(=O)c4ccccc34)ccc2F)CC1` [AZD2461], in the assay with MDAMB231, the “efficacy of the combination of PARPi with AsiDNA versus calculated additivity” value is “supra-additive efficacy”, the concentration for an effect of 20% (IC20) amounted to 100 nM and the IC50 is 500 nM.
The corresponding values for `Cn1ncnc1[C@H]1c2n[nH]c(=O)c3cc(F)cc(c23)N[C@@H]1c1ccc(F)cc1` [BMN673, (8S,9R)-5-fluoro-8-(4-fluorophenyl)-9-(1-methyl-1H-1,2,4-triazol-5-yl)-8,9-dihydro-2H-pyrido[4,3,2de]phthalazin-3(7H)-one] are “supra-additive efficacy”, 0.13 nM and 15.4 nM.
On the same counts, the results for `NC(=O)c1ccc(I)c([N+](=O)[O-])c1` [Iniparib] are “supra-additive efficacy”, 46000 nM and 49500 nM.
On to `NC(=O)c1cccc2cn(-c3ccc([C@@H]4CCCNC4)cc3)nc12` [Niraparib], for which, in the assay with MDAMB231, the “efficacy of the combination of PARPi with AsiDNA versus calculated additivity” value is listed as “supra-additive efficacy”, the concentration for an effect of 20% (IC20) amounted to 100 nM and the IC50 stood at 700 nM.
As for `CNCc1ccc(-c2[nH]c3cc(F)cc4c3c2CCNC4=O)cc1` [Rucaparib, 8-Fluoro-2-{4-[(methylamino)methyl]phenyl}-1,3,4,5-tetrahydro-6H-azepino[5,4,3-cd]indol-6-one], in the assay on MDAMB231, the “efficacy of the combination of PARPi with AsiDNA versus calculated additivity” value is “supra-additive efficacy”, the IC20 was 400 nM and the concentration for half-maximal inhibition (IC50) was found to be 1800 nM.
As to `C[C@]1(c2nc3c(C(N)=O)cccc3[nH]2)CCCN1` [Veliparib, 2-((fi)-2-methylpyrrolidin-2-yl)-1W-benzimidazole-4-carboxamide], the “effect of the combined treatment with AsiDNA” value with 3 BC cell lines is given as “synergistic effect”. The “survival to combined treatment with DT01 versus expected added effect of both single treatments” value in assay [1] was “synergic effect”. The “synergistic effect of the combined treatment with AsiDNA” value in the assay with 2 non-tumor cell lines is listed as “absent”.
